Where two headings read alike, the source gives them in different places.
Key:
red blood cells [1] = settings: cited from earlier work
red blood cells [2] = settings: cited from earlier work; remark: listed apart in the source
[3] = tested on: FK-506 binding protein (FKBP); settings: cited from earlier work
[4] = tested on: peripheral blood mononuclear cells and erythrocytes; settings: cited from earlier work
T-lymphocytes = settings: cited from earlier work
[5] = tested on: transplanted tissue or organ; settings: parenteral administration to donor before transplant; cited from earlier work
[6] = Equilibrium of rapamycin between formed blood elements (FBE), whole blood and plasma in rat blood; type: in vitro ADME; settings: for Kp: formed blood elements, read-out: FBE to plasma ratio
Experimental: In human blood, erythrocytes comprise about 85 to 90 percent of the formed blood elements (microscopically visible). Human whole blood is comprised of about 46% formed blood elements and 54% plasma. Equilibrium of rapamycin between the rapamycin-loaded formed blood elements (FBE) and the plasma is quickly established and is seen to be species dependent. In rat blood containing rapamycin at a concentration of 38 ng/ml, the whole blood and FBE to plasma ratios were 1.3 and 1.7 respectively and at a concentration of 200 ng/ml the ratios were 0.8 and 0.5 respectively.

[7] = Equilibrium of rapamycin between formed blood elements (FBE), whole blood and plasma in human blood; type: in vitro ADME; settings: for Kp: formed blood elements, read-out: FBE to plasma ratio
Experimental: (§1) In human blood at rapamycin concentrations between 76 and 189 ng/ml, the whole blood and FBE to plasma ratios after 30 minutes incubation at 37° C. were 12±2 and 23.7±3.9 respectively. Similarly, at a concentration of 482 ng/ml, the ratios were 1.1 and 1.3 respectively. The ratios of whole blood to plasma concentrations in monkeys receiving rapamycin was 10±6 and in humans the ratio was 12±2, and indication that a species difference exists between primates and other mammals.

[8] = Whole blood to plasma concentration ratio in monkeys receiving rapamycin; type: in vivo; settings: monkey, read-out: ratio of whole blood to plasma concentrations
Experimental: as §1

[9] = Whole blood to plasma concentration ratio in humans receiving rapamycin; type: in vivo; settings: human, read-out: ratio of whole blood to plasma concentrations
Experimental: as §1

FKBP = test: Binding of rapamycin to FKBP in formed blood elements (erythrocytes)
erythrocytes = test: Hemolysis by rapamycin; type: cell-based
graft rejection = settings: donor pretreatment intravenously, rats; cited from earlier work
[10] = tested on: experimental allergic encephalomyolitis; settings: rats; cited from earlier work
adjuvant arthritis = settings: rats; cited from earlier work
[11] = tested on: humoral (IgE-like) antibodies; settings: rats, albumin allergic challenge; cited from earlier work
mouse T-cells = settings: combination with Cyclosporin A; ionomycin + PMA stimulation; cited from earlier work
[12] = tested on: restenosis (smooth muscle cell proliferation and internal thickening following vascular injury); settings: cited from earlier work
[13] = tested on: lymphatic leukemia, colon and mammary cancers, melanocarcinoma and ependymoblastoma; settings: cited from earlier work
transplant rejection = settings: cited from earlier work
[14] = rapamycin 76 to 189 ng/ml, 30 minutes incubation at 37° C.

C[C@@H]1[C@H](O)[C@@H](C)/C=C/C=C/C=C/C=C/C=C/C=C/C=C/[C@H](O[C@@H]2O[C@H](C)[C@@H](O)[C@H](N)[C@@H]2O)C[C@@H]2O[C@](O)(C[C@@H](O)C[C@@H](O)[C@H](O)CC[C@@H](O)C[C@@H](O)CC(=O)O[C@H]1C)C[C@H](O)[C@H]2C(=O)O [Amphotericin B]
effect on sterols and cell membranes (red blood cells [1]): binds to sterols and perforates cell membranes

COc1cccc2c1C(=O)c1c(O)c3c(c(O)c1C2=O)C[C@@](O)(C(C)=O)C[C@@H]3O[C@H]1C[C@H](N)[C@H](O)[C@H](C)O1 [Daunomycin]
binding to red blood cells (red blood cells [2]; red blood cells first treated with Amphotericin B): will bind daunomycin
binding to red blood cells (red blood cells [2]; untreated red blood cells): will not bind to red blood cells

C=CC[C@@H]1/C=C(\C)C[C@H](C)C[C@H](OC)[C@H]2O[C@@](O)(C(=O)C(=O)N3CCCC[C@H]3C(=O)O[C@H](/C(C)=C/[C@@H]3CC[C@@H](O)[C@H](OC)C3)[C@H](C)[C@@H](O)CC1=O)[C@H](C)C[C@@H]2OC [FK-506]
binding with FKBP in the erythrocytes [3]: bind reversibly
absorption and retention by peripheral blood mononuclear cells and erythrocytes [4]: absorbed and retained
activation of T-lymphocytes (T-lymphocytes): inhibits the activation of T-lymphocytes
rejection of the transplanted tissue or organ [5]: reduce rejection of the transplanted tissue or organ

O=P1(N(CCCl)CCCl)NCCCO1 (centres unmarked) [cyclophosphamide]
rejection of the transplanted tissue or organ [5]: reduce rejection of the transplanted tissue or organ

CO[C@H]1C[C@@H]2CC[C@@H](C)[C@@](O)(O2)C(=O)C(=O)N2CCCC[C@H]2C(=O)O[C@H]([C@H](C)C[C@@H]2CC[C@@H](O)[C@H](OC)C2)CC(=O)[C@H](C)/C=C(\C)[C@@H](O)[C@@H](OC)C(=O)[C@H](C)C[C@H](C)/C=C/C=C/C=C/1C [rapamycin]
blood plasma ratio ([6]; rapamycin 38 ng/ml): 1.3
blood plasma ratio ([6]; rapamycin 200 ng/ml): 0.8
Kp ([6]; rapamycin 38 ng/ml): 1.7
Kp ([6]; rapamycin 200 ng/ml): 0.5
blood plasma ratio ([7]; rapamycin 482 ng/ml): 1.1
blood plasma ratio [7, 14]: 12 ± 2
Kp ([7]; rapamycin 482 ng/ml): 1.3
Kp [7, 14]: 23.7 ± 3.9
blood plasma ratio [8]: 10 ± 6
blood plasma ratio [9]: 12 ± 2
binding with FKBP in formed blood elements (erythrocytes) (FKBP): bind reversibly with the binding protein FKBP
hemolysis (erythrocytes): does not cause hemolysis
rejection of the transplanted tissue or organ [5]: reduce rejection of the transplanted tissue or organ
graft rejection (graft rejection): reduce graft rejection
immune response in experimental allergic encephalomyolitis [10]: inhibits the immune response
immune response in adjuvant arthritis (adjuvant arthritis): inhibits the immune response
humoral (IgE-like) antibodies [11]: prevents humoral (IgE-like) antibodies
suppressive activity of Cyclosporin A in T-cell proliferation, IL-2 production and IL-2R expression (mouse T-cells): potentiates the suppressive activity of Cyclosporin A
restenosis [12]: inhibits restenosis
antitumor activity [13]: antitumor activity
transplant rejection (transplant rejection): inhibition of transplant rejection

CC1\C=C/C=C\C=C\C=C\C=C\C=C\C=C\C(OC2OC(C)C(O)C(N)C2O)CC2OC(O)(CC(O)CC(O)CC(O)CC(O)CC(=O)CC(O)CC(=O)OC1C(C)CCC(O)CC(=O)c1ccc(N)cc1)CC(O)C2C(=O)O (centres unmarked) [vacidin A]
binding with red blood cells and hemolysis (red blood cells [1]): bind with red blood cells and cause hemolysis to occur

cyclosporin A
rejection of the transplanted tissue or organ [5]: reduce rejection of the transplanted tissue or organ

methylprednisone
rejection of the transplanted tissue or organ [5]: reduce rejection of the transplanted tissue or organ

From patent publication US5482945A, “Innovative technique for immunosuppression involving administration of rapamycin loaded formed blood elements” (American Home Products Corporation, priority 1992, dated 1996)
